Calls of active or inactive are those of the source. The calls are words filed in the database; no cut-off is given here.
Tests used:
[1] = tested on: Quadruplex DNA; test: Binding affinity to Parallel CHL1 G-quadruplex DNA (unknown origin) assessed as increase in fluorescence intensity at 5 uM by fluorescence spectrophotometric analysis; assay type: nucleic-acid assay
[2] = tested on: Quadruplex DNA; test: Binding affinity to G-quadruplex DNA in human MDA-MB-231 cells assessed as increase in fluorescence at 2 uM incubated for 30 mins by DNase I digestion based confocal microscopic analysis; assay type: cell-based
[3] = tested on: Quadruplex DNA; test: Binding affinity to Parallel VAV1 G-quadruplex DNA (unknown origin) assessed as increase in fluorescence intensity at 5 uM by fluorescence spectrophotometric analysis; assay type: nucleic-acid assay
[4] = tested on: MDA-MB-231; test: Induction of apoptosis in human MDA-MB-231 cells assessed as downregulation of KRAS gene expression at 10 to 20 uM incubated for 24 hrs by RT-PCR analysis; assay type: functional, cell-based; settings: dose 10-20 µM
[5] = tested on: MDA-MB-231; test: Induction of cell cycle arrest in human MDA-MB-231 cells assessed as accumulation of cells at G2-M phase at 20 uM incubated for 24 hrs by flow cytometry (reference value: 16.8 %); assay type: functional
[6] = tested on: DNA; test: Binding affinity to Duplex DNA (unknown origin) assessed as hypochromic red shift at 5 uM by absorption spectra analysis; assay type: nucleic-acid assay
[7] = tested on: Quadruplex DNA; test: Binding affinity to G-quadruplex DNA in human MDA-MB-231 cells assessed as increase in fluorescence at 2 uM incubated for 30 mins by RNase A digestion based confocal microscopic analysis; assay type: cell-based
[8] = tested on: MDA-MB-231; test: Induction of cell cycle arrest in human MDA-MB-231 cells assessed as accumulation of cells at G2-M phase at 10 uM incubated for 24 hrs by flow cytometry (reference value: 16.8 %); assay type: functional
[9] = biological target: Quadruplex DNA; test: Binding affinity to 3'-Cy5-labelled c-MYC G-quadruplex DNA (unknown origin) assessed as dissociation constant by fluorescence quenching analysis; assay type: nucleic-acid assay
[10] = tested on: Quadruplex DNA; test: Binding affinity to Parallel c-KIT1 G-quadruplex DNA (unknown origin) assessed as increase in fluorescence intensity at 5 uM by fluorescence spectrophotometric analysis; assay type: nucleic-acid assay
[11] = tested on: MDA-MB-231; test: Antiproliferative activity against human MDA-MB-231 cells cultured as 3D tumor spheroids assessed as inhibition of tumor volume incubated for 7 days; assay type: functional, cell-based; settings: time 7.0 day
[12] = tested on: Quadruplex DNA; test: Binding affinity to KRAS G-quadruplex DNA (unknown origin) assessed as increase in fluorescence by measuring red shift at 5 uM by fluorescence titration spectra analysis; assay type: nucleic-acid assay
[13] = tested on: MDA-MB-231; test: Inhibition of colony formation in human MDA-MB-231 cells at 1.5 to 6 uM incubated for 3 days by crystal violet staining based analysis; assay type: functional, cell-based; settings: dose 1.5-6 µM, time 3.0 day
[14] = tested on: Quadruplex DNA; test: Binding affinity to G-quadruplex DNA in human MDA-MB-231 cells at 2 uM incubated for 30 mins by Hoechst 33342 staining based confocal microscopic analysis; assay type: cell-based
[15] = tested on: MDA-MB-231; test: Induction of apoptosis in human MDA-MB-231 cells assessed as downregulation of c-MYC gene expression at 10 to 20 uM incubated for 24 hrs by RT-PCR analysis; assay type: functional, cell-based; settings: dose 10-20 µM
[16] = tested on: MDA-MB-231; test: Induction of apoptosis in human MDA-MB-231 cells assessed as downregulation of KRAS protein expression at 10 to 20 uM incubated for 24 hrs by Western blot analysis; assay type: functional, cell-based; settings: dose 10-20 µM
[17] = tested on: Quadruplex DNA; test: Binding affinity to Parallel c-KIT2 G-quadruplex DNA (unknown origin) assessed as increase in fluorescence intensity at 5 uM by fluorescence spectrophotometric analysis; assay type: nucleic-acid assay
[18] = tested on: Quadruplex DNA; test: Binding affinity to Antiparallel Bm G-quadruplex DNA (unknown origin) assessed as increase in fluorescence intensity at 5 uM by fluorescence spectrophotometric analysis; assay type: nucleic-acid assay
[19] = tested on: MDA-MB-231; test: Induction of cell cycle arrest in human MDA-MB-231 cells assessed as accumulation of cells at G0-G1 phase at 10 uM incubated for 24 hrs by flow cytometry (reference value: 69.6 %); assay type: functional
[20] = tested on: MDA-MB-231; test: Induction of cell cycle arrest in human MDA-MB-231 cells assessed as accumulation of cells at S phase at 10 uM incubated for 24 hrs by flow cytometry (reference value: 13 %); assay type: functional
[21] = tested on: DNA; test: Binding affinity to Duplex DNA (unknown origin) assessed as increase in fluorescence intensity at 5 uM by fluorescence spectrophotometric analysis; assay type: nucleic-acid assay
[22] = tested on: MDA-MB-231; test: Antiproliferative activity against human MDA-MB-231 cells assessed as inhibition of cell growth incubated for 24 hrs by CCK-8 assay; assay type: functional, cell-based; settings: MDA-MB-231, 24 h
[23] = tested on: MDA-MB-231; test: Induction of cell cycle arrest in human MDA-MB-231 cells assessed as accumulation of cells at sub-G1 phase at 10 uM incubated for 24 hrs by flow cytometry (reference value: 0.6 %); assay type: functional
[24] = tested on: Quadruplex DNA; test: Stabilization of FAM/TAMRA-labelled KRAS G-quadruplex DNA (unknown origin) assessed as change in melting temperature in presence of duplex DNA by FRET assay; assay type: nucleic-acid assay
[25] = tested on: Quadruplex DNA; test: Binding affinity to c-MYC G-quadruplex DNA (unknown origin) assessed as imino proton signal by NMR spectral analysis; assay type: nucleic-acid assay
[26] = tested on: Quadruplex DNA; test: Binding affinity to 3'-Cy5-labelled c-MYC G-quadruplex DNA (unknown origin) assessed as decrease in Cy5 fluorescence upto 5 uM by fluorescence quenching analysis; assay type: nucleic-acid assay
[27] = tested on: MDA-MB-231; test: Induction of cell death in human MDA-MB-231 cells cultured as 3D tumor spheroids assessed as increase in red fluorescence intensity at 40 uM incubated for 7 days by propidium iodide staining based imaging analysis; assay type: functional; settings: time 7.0 day
[28] = tested on: Quadruplex DNA; test: Binding affinity to KRAS G-quadruplex DNA (unknown origin) assessed as decrease in absorption band by measuring red shift at 5 uM by absorption spectra analysis; assay type: nucleic-acid assay
[29] = tested on: MDA-MB-231; test: Induction of cell cycle arrest in human MDA-MB-231 cells assessed as accumulation of cells at S phase at 20 uM incubated for 24 hrs by flow cytometry (reference value: 13 %); assay type: functional
[30] = tested on: HEK-293T; test: Effect on KRAS gene expression in human HEK293T cells co-transfected with KRAS promoter luciferase reporter assessed as decrease in KRAS expression by measuring reduction in firefly luciferase expression at 10 to 20 uM incubated for 24 hrs by firefly luciferase based microplate analysis; assay type: functional, cell-based; settings: dose 10-20 µM
[31] = tested on: Calf thymus DNA; test: Binding affinity to calf thymus DNA (unknown origin) assessed as increase in fluorescence intensity at 5 uM by fluorescence spectrophotometric analysis; settings: Bos taurus
[32] = biological target: Quadruplex DNA; test: Binding affinity to 5'-Cy5-labelled c-MYC G-quadruplex DNA (unknown origin) assessed as dissociation constant by fluorescence quenching analysis; assay type: nucleic-acid assay
[33] = tested on: MDA-MB-231; test: Induction of apoptosis in human MDA-MB-231 cells assessed as downregulation of PARP protein expression at 10 to 20 uM incubated for 24 hrs by Western blot analysis; assay type: functional, cell-based; settings: dose 10-20 µM

## CCn1c2ccccc2c2cc(/C=C/c3sc4ccccc4[n+]3C)ccc21.[I-]
[1]
  Activity: Active
[2]
  Activity: inactive
[3]
  Activity: Active
[4]
  Activity: Active
[5]
  Activity: 6.4%
[6]
  Activity: Active
[7]
  Activity: Active
[8]
  Activity: 16%
[9]
  Kd: 1000 nM
[10]
  Activity: Active
[11]
  Activity: Dose-Dependent Effect
[12]
  Activity: Active
[13]
  inhibition: Active
[14]
  Activity: Active
[15]
  Activity: Active
[16]
  Activity: Active
[17]
  Activity: Active
[18]
  Activity: Active
[19]
  Activity: 66.5%
[20]
  Activity: 14.5%
[21]
  Activity: inactive
[22]
  IC50: 13300 nM
[23]
  Activity: 3%
[24]
  ΔTm: 14 °C
[25]
  Activity: Active
[26]
  Activity: Active
[27]
  Activity: Active
[28]
  Activity: Active
[29]
  Activity: 8.6%
[30]
  Activity: Active
[31]
  Activity: Active
[32]
  Kd: 1100 nM
[33]
  Activity: Active

From ChEMBL document CHEMBL5550112, “Development of a fluorescent ligand that can illuminate nuclear G-quadruplexes and modulate oncogene expression” (Bioorg Med Chem, 2024)
